Here are results for 22 compounds from patent US10544130B2, “Metallo-beta-lactamase inhibitors” (priority 2015, dated 2020).

Data set [1] has as its system Pseudomonas aeruginosa PAO1 MB9798 (efflux+, IMP-1). To be noted: ratio MITC95 PA 9798/MITC95 PA 9799; imipenem at 2 μg/mL. A digest of the protocol:
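Isogenic PAO1 pair (efflux+ MB9798, efflux− MB9799, both IMP-1) tested by microbroth MIC with fixed imipenem and/or ceftazidime, usually at CLSI breakpoint, plus fixed class A/C inhibitor against AmpC. MBL inhibitor titrated; concentration restoring susceptibility recorded and fold difference between strains taken as efflux extent.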

The test system of data set [2] is Serratia marcescens expressing IMP-1 (CL5741). It is filed as cell-based. To be noted: with imipenem 1 μg/ml; 95% inhibition of bacterial growth. In outline:
(§1)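 Growth read by absorbance after 22–24 h at 35 °C in CAMHB, with test compound alone or combined with 1 μg/ml imipenem. Inocula came from overnight 35 °C blood-agar colonies, set to a defined OD600 and diluted 1:100. Value is the inhibitor concentration giving synergy.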

Data set [3] concerns Klebsiella pneumoniae expressing VIM-1 (IHMA599644). Format: cell-based. To be noted: with imipenem 1 μg/ml; 95% inhibition of bacterial growth. In outline:
as §1

With `Nc1nc2c(-c3ccc(S(=O)(=O)N[C@@H]4CNC[C@@H]4N)c(S(N)(=O)=O)c3-c3nn[nH]n3)cccc2[nH]1` [Example 240, 4-(2-amino-1H-benzo[d]imidazol-4-yl)-N^1-((3R,4S)-4-aminopyrrolidin-3-yl)-3-(2H-tetrazol-5-yl)benzene-1,2-disulfonamide], in data set [1], the Efflux ratio came out at 1.00. Besides, the “Serratia marcescens (IMP-1) MITC95” value in data set [2] amounted to 0.7813 µM. Also, the “Klebsiella pneumoniae (VIM-1) MITC95” value in data set [3] came out at 1.563 µM.
In the same order, the values of `CN(C1CNC1)S(=O)(=O)c1ccc(-c2cccc3[nH]c(N)nc23)c(-c2nn[nH]n2)c1S(N)(=O)=O` [Example 255, 4-(2-amino-1H-benzo[d]imidazol-4-yl)-N1-(azetidin-3-yl)-N1-methyl-3-(2H-tetrazol-5-yl)benzene-1,2-disulfonamide] are 2.00, 0.7813 µM and 0.7813 µM.
For `CC1(NS(=O)(=O)c2ccc(-c3cccc4[nH]c(N)nc34)c(-c3nn[nH]n3)c2S(N)(=O)=O)CNC1` [Example 257, 4-(2-amino-1H-benzo[d]imidazol-4-yl)-N1-(3-methylazetidin-3-yl)-3-(2H-tetrazol-5-yl)benzene-1,2-disulfonamide], the Efflux ratio in data set [1] worked out at 1.00. In addition, the “Serratia marcescens (IMP-1) MITC95” value in data set [2] was found to be 0.7813 µM. In addition, in data set [3], the “Klebsiella pneumoniae (VIM-1) MITC95” value was 0.7813 µM.
Turning to `Nc1nc2c(-c3ccc(S(=O)(=O)NC[C@H]4CCCN4)c(S(N)(=O)=O)c3-c3nn[nH]n3)cccc2[nH]1` [Example 261, (R)-4-(2-amino-1H-benzo[d]imidazol-4-yl)-N1-(pyrrolidin-2-ylmethyl)-3-(2H-tetrazol-5-yl) benzene-1,2-disulfonamide], in data set [1], the Efflux ratio was 1.00. Moreover, the “Serratia marcescens (IMP-1) MITC95” value in data set [2] amounted to 0.7813 µM. The “Klebsiella pneumoniae (VIM-1) MITC95” value in data set [3] worked out at 0.7813 µM.
For the compound `Nc1nc2c(-c3ccc(S(=O)(=O)NC[C@@H]4CCCN4)c(S(N)(=O)=O)c3-c3nn[nH]n3)cccc2[nH]1` [Example 262, (S)-4-(2-amino-1H-benzo[d]imidazol-4-yl)-N1-(pyrrolidin-2-ylmethyl)-3-(2H-tetrazol-5-yl)benzene-1,2-disulfonamide], the Efflux ratio in data set [1] is 1.00. Moreover, the “Serratia marcescens (IMP-1) MITC95” value in data set [2] was 0.7813 µM. Besides, the “Klebsiella pneumoniae (VIM-1) MITC95” value in data set [3] turned out to be 0.7813 µM.
Turning to `C[C@H](N)c1nc2c(-c3ccc(S(=O)(=O)N[C@@H]4CCNC4)c(S(N)(=O)=O)c3-c3nn[nH]n3)cccc2[nH]1` [Example 272, 4-(2-((S)-1-aminoethyl)-1H-benzo[d]imidazol-4-yl)-N1-((R)-pyrrolidin-3-yl)-3-(2H-tetrazol-5-yl)benzene-1,2-disulfonamide], the Efflux ratio in data set [1] was determined as 2.00. Further, the “Serratia marcescens (IMP-1) MITC95” value in data set [2] was found to be 1.563 µM. In data set [3], the “Klebsiella pneumoniae (VIM-1) MITC95” value amounted to 1.563 µM.
Turning to `NCc1nc2c(-c3ccc(S(=O)(=O)N[C@@H]4CCNC4)c(S(N)(=O)=O)c3-c3nn[nH]n3)cccc2s1` [Example 276, (R)-4-(2-(aminomethyl)benzo[d]thiazol-4-yl)-N1-(pyrrolidin-3-yl)-3-(2H-tetrazol-5-yl)benzene-1,2-disulfonamide], in data set [1], the Efflux ratio came out at 1.00. In addition, in data set [2], the “Serratia marcescens (IMP-1) MITC95” value came to 0.7813 µM. Also, the “Klebsiella pneumoniae (VIM-1) MITC95” value in data set [3] amounted to 0.7813 µM.
With `NCc1csc(Nc2cccc(-c3ccc(S(=O)(=O)N[C@@H]4CCNC4)c(S(N)(=O)=O)c3-c3nn[nH]n3)c2)n1` [Example 290, (R)-3′-((4-(aminomethyl)thiazol-2-yl)amino)-N4-(pyrrolidin-3-yl)-2-(2H-tetrazol-5-yl)-[1,1′-biphenyl]-3,4-disulfonamide], the Efflux ratio in data set [1] stood at 2.00. Also, the “Serratia marcescens (IMP-1) MITC95” value in data set [2] is 0.7813 µM. Also, the “Klebsiella pneumoniae (VIM-1) MITC95” value in data set [3] was found to be 0.7813 µM.
With `Nc1ccc(-c2ccc(S(=O)(=O)NC[C@H](N)CO)c(S(N)(=O)=O)c2-c2nn[nH]n2)cn1` [Example 297, (S)—N^1-(2-amino-3-hydroxypropyl)-4-(6-aminopyridin-3-yl)-3-(2H-tetrazol-5-yl) benzene-1,2-disulfonamide], the Efflux ratio in data set [1] was found to be 1.00. Also, in data set [2], the “Serratia marcescens (IMP-1) MITC95” value was 0.7813 µM. Moreover, in data set [3], the “Klebsiella pneumoniae (VIM-1) MITC95” value was 1.563 µM.
For `C[C@H](CN)NS(=O)(=O)c1ccc(-c2ccnc(N)c2)c(-c2nn[nH]n2)c1S(N)(=O)=O` [Example 317, (R)—N1-(1-aminopropan-2-yl)-4-(2-aminopyridin-4-yl)-3-(2H-tetrazol-5-yl) benzene-1,2-disulfonamide] the same measures were 0.50, 1.563 µM and 3.125 µM.
With `C[C@H](CN)NS(=O)(=O)c1ccc(-c2cccc3c2nc(N)n3C)c(-c2nn[nH]n2)c1S(N)(=O)=O` [Example 395, (R)-4-(2-amino-1-methyl-1H-benzo[d]imidazol-4-yl)-N^1-(1-aminopropan-2-yl)-3-(2H-tetrazol-5-yl)benzene-1,2-disulfonamide], in data set [2], the “Serratia marcescens (IMP-1) MITC95” value is 1.563 µM. The “Klebsiella pneumoniae (VIM-1) MITC95” value in data set [3] is 1.563 µM.
Turning to `NC[C@H](CO)NS(=O)(=O)c1ccc(-c2cccc3[nH]nnc23)c(-c2nn[nH]n2)c1S(N)(=O)=O` [Example 407, (R)-N^1-(1-amino-3-hydroxypropan-2-yl)-4-(1H-benzo[d][1,2,3]triazol-4-yl)-3-(2H-tetrazol-5-yl)benzene-1,2-disulfonamide], in data set [2], the “Serratia marcescens (IMP-1) MITC95” value turned out to be 1.563 µM. In addition, the “Klebsiella pneumoniae (VIM-1) MITC95” value in data set [3] was determined as 3.125 µM.
With `NC[C@H](O)CNS(=O)(=O)c1ccc(-c2ccc3nccn3c2)c(-c2nn[nH]n2)c1S(N)(=O)=O` [Example 418, (S)-N^1-(3-amino-2-hydroxypropyl)-4-(imidazo[1,2-a]pyridin-6-yl)-3-(2H-tetrazol-5-yl)benzene-1,2-disulfonamide], the “Serratia marcescens (IMP-1) MITC95” value in data set [2] amounted to 0.7813 µM. Further, in data set [3], the “Klebsiella pneumoniae (VIM-1) MITC95” value is 1.563 µM.
Consider `C[C@H](N)CNS(=O)(=O)c1ccc(-c2ccnc(N)c2)c(-c2nn[nH]n2)c1S(N)(=O)=O` [Example 421, (S)-N^1-(2-aminopropyl)-4-(2-aminopyridin-4-yl)-3-(2H-tetrazol-5-yl)benzene-1,2-disulfonamide], for which the “Serratia marcescens (IMP-1) MITC95” value in data set [2] was 0.7813 µM. Also, the “Klebsiella pneumoniae (VIM-1) MITC95” value in data set [3] stood at 1.563 µM.
On to `C[C@@H](N)CNS(=O)(=O)c1ccc(-c2ccnc(N)c2)c(-c2nn[nH]n2)c1S(N)(=O)=O` [Example 422, (R)-N^1-(2-aminopropyl)-4-(2-aminopyridin-4-yl)-3-(2H-tetrazol-5-yl)benzene-1,2-disulfonamide], for which the “Serratia marcescens (IMP-1) MITC95” value in data set [2] amounted to 0.7813 µM. Besides, in data set [3], the “Klebsiella pneumoniae (VIM-1) MITC95” value came to 1.563 µM.
For the compound `NCC(CN)NS(=O)(=O)c1ccc(-c2cccc3ccc(N)nc23)c(-c2nn[nH]n2)c1S(N)(=O)=O` [Example 430, 4-(2-aminoquinolin-8-yl)-N1-(1,3-diaminopropan-2-yl)-3-(2H-tetrazol-5-yl)benzene-1,2-disulfonamide], in data set [2], the “Serratia marcescens (IMP-1) MITC95” value turned out to be 1.563 µM. In addition, the “Klebsiella pneumoniae (VIM-1) MITC95” value in data set [3] is 1.563 µM.
`Nc1ncc(-c2cccc(-c3ccc(S(=O)(=O)N[C@@H]4CCNC4)c(S(N)(=O)=O)c3-c3nnn[nH]3)n2)[nH]1` [Example 439, (R)-4-(6-(2-Amino-1H-imidazol-5-yl)pyridin-2-yl)-N^1-(pyrrolidin-3-yl)-3-(1H-tetrazol-5-yl)benzene-1,2-disulfonamide]: the “Serratia marcescens (IMP-1) MITC95” value in data set [2] was 1.563 µM. For the same compound, the “Klebsiella pneumoniae (VIM-1) MITC95” value in data set [3] came out at 1.563 µM.
For `NCCNc1ncccc1-c1ccc(S(=O)(=O)N[C@@H]2CCNC2)c(S(N)(=O)=O)c1-c1nn[nH]n1` [Example 459, (R)-4-(2-((2-Aminoethyl)amino)pyridin-3-yl)-N1-(pyrrolidin-3-yl)-3-(2H-tetrazol-5-yl)benzene-1,2-disulfonamide], the “Serratia marcescens (IMP-1) MITC95” value in data set [2] is 1.563 µM. The “Klebsiella pneumoniae (VIM-1) MITC95” value in data set [3] was found to be 1.563 µM.
In the case of `C[C@H](CN)NS(=O)(=O)c1ccc(-c2cccnc2NCCN)c(-c2nn[nH]n2)c1S(N)(=O)=O` [Example 460, (R)-4-(2-((2-aminoethyl)amino)pyridin-3-yl)-N1-(1-aminopropan-2-yl)-3-(2H-tetrazol-5-yl)benzene-1,2-disulfonamide], the “Serratia marcescens (IMP-1) MITC95” value in data set [2] worked out at 1.563 µM. Also, the “Klebsiella pneumoniae (VIM-1) MITC95” value in data set [3] amounted to 1.563 µM.
`Cc1cc(-c2ccc(S(=O)(=O)NC[C@H](O)CN)c(S(N)(=O)=O)c2-c2nn[nH]n2)cnc1N` [Example 477, (R)—N1-(3-amino-2-hydroxypropyl)-4-(6-amino-5-methylpyridin-3-yl)-3-(2H-tetrazol-5-yl)benzene-1,2-disulfonamide]: in data set [2], the “Serratia marcescens (IMP-1) MITC95” value is 0.7813 µM. Further, in data set [3], the “Klebsiella pneumoniae (VIM-1) MITC95” value was 1.563 µM.
As to `NCCNCCNS(=O)(=O)c1ccc(-c2ccc(N)nc2)c(-c2nn[nH]n2)c1S(N)(=O)=O` [Example 482, N1-(2-(−2-amineoethylamino)ethyl)-4-(6-aminopyridin-3-yl)-3-(2H-tetrazol-5-yl)benzene-1,2-disulfonamide], the “Serratia marcescens (IMP-1) MITC95” value in data set [2] is 0.7813 µM. Besides, in data set [3], the “Klebsiella pneumoniae (VIM-1) MITC95” value came out at 1.563 µM.
With `Nc1ccc(-c2ccc(S(=O)(=O)N[C@@H]3CCCNC3)c(S(N)(=O)=O)c2-c2nn[nH]n2)cn1` [Example 490, (R)-4-(6-aminopyridin-3-yl)-N1-(piperidin-3-yl)-3-(2H-tetrazol-5-yl)benzene-1,2-disulfonamide], the “Serratia marcescens (IMP-1) MITC95” value in data set [2] was determined as 1.563 µM. The “Klebsiella pneumoniae (VIM-1) MITC95” value in data set [3] was 3.125 µM.
